Some results are limits rather than exact numbers.

In one experiment the target is T1, glucocorticoid receptor (Homo sapiens, UniProt P04150).
T1 construct: containing 50-200 ug of A549 cell extract and 1.86 nM; host or cells: A549 human lung epithelial cells
T1 sequence (P04150 1-777): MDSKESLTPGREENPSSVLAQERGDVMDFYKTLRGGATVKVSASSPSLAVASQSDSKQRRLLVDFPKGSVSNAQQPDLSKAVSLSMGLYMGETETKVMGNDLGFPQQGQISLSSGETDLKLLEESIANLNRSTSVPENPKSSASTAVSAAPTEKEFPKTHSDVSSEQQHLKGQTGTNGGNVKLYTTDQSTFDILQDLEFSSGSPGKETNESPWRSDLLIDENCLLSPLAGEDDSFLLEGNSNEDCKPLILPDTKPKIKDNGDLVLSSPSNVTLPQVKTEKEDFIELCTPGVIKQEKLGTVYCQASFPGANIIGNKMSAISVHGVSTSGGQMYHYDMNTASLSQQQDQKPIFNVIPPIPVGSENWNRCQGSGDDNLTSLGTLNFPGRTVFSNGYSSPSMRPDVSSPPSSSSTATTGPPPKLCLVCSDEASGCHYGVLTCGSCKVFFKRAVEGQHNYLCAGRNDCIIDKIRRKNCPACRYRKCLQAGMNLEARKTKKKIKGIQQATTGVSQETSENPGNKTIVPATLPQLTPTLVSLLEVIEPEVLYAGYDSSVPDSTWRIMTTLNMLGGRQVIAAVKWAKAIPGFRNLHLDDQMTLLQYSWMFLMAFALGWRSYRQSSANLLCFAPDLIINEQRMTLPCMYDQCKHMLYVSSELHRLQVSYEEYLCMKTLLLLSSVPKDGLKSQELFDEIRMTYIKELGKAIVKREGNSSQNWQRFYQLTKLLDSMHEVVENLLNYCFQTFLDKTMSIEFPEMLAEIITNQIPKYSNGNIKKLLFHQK
Kind of experiment: Glucocorticoid Receptor Binding Assay (Method 1), [3H]-dexamethasone competition, A549 cell extract. Conditions: 1.86 nM [3H]-dexamethasone, read-out: GR Ki (nM) Method 1. How it is done:
Glucocorticoid Receptor Binding Assay (Method 1):
A549 human lung epithelial cells (ATCC) are grown at a scale where gram quantity cell pellets are obtained. Harvested cell pellets are washed twice in cold phosphate buffered saline, centrifuged, and resuspended in cold assay binding buffer. The assay binding buffer consists of 10% glycerol, 50 mM Tris-HCl (pH7.2), 75 mM sodium chloride, 1.5 mM magnesium chloride, 1.5 mM EDTA, and 10 mM sodium molybdate. Cell suspensions were lysed via sonication, centrifuged, and the “extract” supernatant is snap frozen and stored at −80 C until needed.
Incubations are carried out at 4 degrees Celsius for 16 hours. After incubation, 70 ul of 3× dextran-coated charcoal solution is added to each reaction, mixed, and incubated for 8 minutes at RT. 3×-dextran-coated charcoal solution consists of 250 ml assay binding buffer, 3.75 g Norit A charcoal (Sigma), and 1.25 g dextran T-70 (Amersham). Charcoal/unbound radioligand complexes are removed by centrifugation of the plate and 140 ul of supernatant from each well is transferred to another 96 well Optiplate (Packard Instruments). 200 ul of Microscint-20 scinillant (Packard Instruments) is added to each well and amount of receptor bound radioligand is determined using Packard Instruments TopCount instrument.

The next experiment has as its target T2, human MR (Homo sapiens, UniProt P08235).
T2 construct: The full length human MR gene is cloned from a human kidney or human brain cDNA library; inferred from own knowledge of the pAcHLT vector (N); made in house; host or cells: Sf9 insect cells (baculovirus)
T2 sequence (P08235 1-984): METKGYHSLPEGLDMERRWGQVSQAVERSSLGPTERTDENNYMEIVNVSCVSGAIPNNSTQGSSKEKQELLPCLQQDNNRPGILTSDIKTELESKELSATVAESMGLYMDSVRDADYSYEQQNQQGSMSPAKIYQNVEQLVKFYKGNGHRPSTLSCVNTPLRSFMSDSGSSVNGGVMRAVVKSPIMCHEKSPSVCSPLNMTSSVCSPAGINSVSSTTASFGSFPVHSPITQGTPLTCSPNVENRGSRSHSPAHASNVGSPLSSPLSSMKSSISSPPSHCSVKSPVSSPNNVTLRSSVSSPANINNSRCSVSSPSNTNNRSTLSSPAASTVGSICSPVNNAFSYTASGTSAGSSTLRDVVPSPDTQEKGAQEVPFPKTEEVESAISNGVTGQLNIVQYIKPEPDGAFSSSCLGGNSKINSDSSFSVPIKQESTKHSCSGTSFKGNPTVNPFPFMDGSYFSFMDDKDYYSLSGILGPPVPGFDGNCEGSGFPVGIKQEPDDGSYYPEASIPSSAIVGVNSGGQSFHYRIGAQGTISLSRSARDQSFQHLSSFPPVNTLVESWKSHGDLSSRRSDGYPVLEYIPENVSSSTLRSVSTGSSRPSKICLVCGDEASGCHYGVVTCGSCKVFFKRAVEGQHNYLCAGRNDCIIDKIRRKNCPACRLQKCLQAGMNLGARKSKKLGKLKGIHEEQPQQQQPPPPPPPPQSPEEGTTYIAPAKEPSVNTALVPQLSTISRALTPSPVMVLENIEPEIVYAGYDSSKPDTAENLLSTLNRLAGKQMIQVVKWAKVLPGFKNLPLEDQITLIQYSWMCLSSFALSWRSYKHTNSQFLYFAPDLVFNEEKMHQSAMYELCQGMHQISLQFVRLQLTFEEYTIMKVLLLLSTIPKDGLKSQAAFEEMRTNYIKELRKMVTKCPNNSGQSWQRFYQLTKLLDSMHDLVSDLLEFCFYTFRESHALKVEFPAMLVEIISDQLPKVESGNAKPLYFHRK
Kind of experiment: Mineralocorticoid Receptor Binding Assay (Method 1), [3H]-aldosterone competition. The note with it: 0.5 nM [3H]-aldosterone, human MR expressed in Sf9 cells. The protocol: Mineralocorticoid Receptor Binding Assay (Method 1):
The full length human MR gene is cloned from a human kidney or human brain cDNA library. […] The PCR reaction is performed in a final volume of 50 μl containing about 1 μl of a 50× stock solution of polymerase; about 1 μl of a 50× stock solution of dNTP; about 5 μl of an appropriate PCR buffer; about 1 μl of each primer; about 5 μl of a H. kidney or H. brain cDNA library; and about 36 μl of water. The reaction is allowed to denature for about 30 seconds at 95 degrees Celsius, anneal for about 30 seconds at 55 degrees Celsius, and extend for about 5 minutes at 72 degrees Celsius, the sequence being repeated for a total of about 35 cycles. […] To extract the cDNA product from the agarose gel, the QIAEX II Gel Extraction protocol (QIAGEN, Inc.) is employed according to the manufacturer's instructions. Following extraction, the MR cDNA is cloned into an appropriate cloning vector (Zero Blunt TOPO PCR Cloning Kit (Invitrogen, Inc.) and a pAcHLT-baculovirus transfer vector (B.D./Pharminogen), then expressed in SF9 insect cells, essentially according to manufacturer's instructions. Sf9 cells are grown at a scale where gram quantity cell pellets are obtained for subsequent use in the MR binding assay. Harvested cell pellets are lysed by repeated freeze-thaw cycles (about 4) in a suitable lysis buffer then centrifuged at about 1×10^3 G (with the supernatant being saved for future assays).
MR binding assays are performed in a final total volume of about 250 μl containing about 20-25 μg of protein and 0.5 nM of [^3H]-aldosterone plus varying concentrations of test compound or vehicle. The assay binding buffer consists of 30 mM sodium molybdate, 30 mM of TRIS-HCl, 5 mM sodium phosphate, 5 mM sodium pyrophosphate, and about 10% glycerol, pH=7.5.
Incubations are carried out at 4 degrees Celsius with shaking for about 16 hours. 200 μl aliquots of each incubation are filtered onto Millipore HA 0.45 micron 96-well filter plates, pre-moistened with cold 30 mM TRIS-HCl. The filter plates are suctioned dry with vacuum and immediately washed 3× with cold 30 mM TRIS-HCl. The plates are then punched out and the amount of receptor-ligand complex is determined by liquid scintillation counting using 4 ml of Ready Protein Plus™ liquid scintillation cocktail.

By Ki is commonly meant the equilibrium dissociation constant of an inhibitor or competing ligand from its target. For `CCCC(C)(c1ccccc1)c1c[nH]c2c(C)cccc12` (stereo not drawn) [Example 37, 7-Methyl-3-(1-methyl-1-phenyl-butyl)-1H-indole], the Ki on glucocorticoid receptor and at human MR was less than 500 nM each time.

For `CCC(CC)(c1cc2ccccc2s1)c1c[nH]c2c(NS(C)(=O)=O)cccc12` [Example 6, N-[3-(1-Benzo[b]thiophen-2-yl-1-ethyl-propyl)-1H-indol-7-yl]-methanesulfonamide], the Ki on glucocorticoid receptor and on human MR was less than 500 nM throughout.

`CCCC(C)(c1ccc(OC)cc1)c1c[nH]c2c(C)cccc12` (stereo not drawn) [Example 20, 3-[1-(4-Methoxy-phenyl)-1-methyl-butyl]-7-methyl-1H-indole]: the Ki on glucocorticoid receptor and on human MR was less than 500 nM throughout.

On to `CCCC(C)(c1ccc(OC)cc1)c1c[nH]c2c(NS(C)(=O)=O)cccc12` (stereo not drawn) [Example 45, N-{3-[1-(4-Methoxy-phenyl)-1-methyl-butyl]-1H-indol-7-yl}-methanesulfonamide], for which the Ki at glucocorticoid receptor and at human MR was less than 500 nM throughout.

On to `CCC(CC)(c1cccs1)c1c[nH]c2c(NS(C)(=O)=O)cccc12` [Example 15, N-[3-(1-Ethyl-1-thiophen-2-yl-propyl)-1H-indol-7-yl]-methanesulfonamide], for which the Ki at glucocorticoid receptor and at human MR was less than 500 nM in each case.

`CC(c1ccc(F)cc1)(c1c[nH]c2c(NS(C)(=O)=O)cccc12)C1CC1` (stereo not drawn) [Example 5, N-{3-[1-Cyclopropyl-1-(4-fluoro-phenyl)-ethyl]-1H-indol-7-yl}-methanesulfonamide]: the Ki at glucocorticoid receptor and on human MR was less than 500 nM in each case.

In the case of `CCCC(C)(c1ccc(C)cc1)c1c[nH]c2c(NS(C)(=O)=O)cccc12` (stereo not drawn) [Example 1, N-[3-(1-Methyl-1-p-tolyl-butyl)-1H-indol-7-yl]methane sulfonamide], the Ki on glucocorticoid receptor and on human MR was less than 500 nM each time.

Turning to `CCCC(CCC)(c1ccc(OC)cc1)c1c[nH]c2c(NS(C)(=O)=O)cccc12` [Example 69, N-{3-[1-(4-Methoxy-phenyl)-1-propyl-butyl]-1H-indol-7-yl}-methanesulfonamide], the Ki at glucocorticoid receptor and on human MR was less than 500 nM throughout.

With `CCCC(C)(c1ccc(OC)cc1)c1c[nH]c2c(CC)cccc12` (stereo not drawn) [Example 19, 7-Ethyl-3-[1-(4-methoxy-phenyl)-1-methyl-butyl]-1H-indole], the Ki on glucocorticoid receptor and at human MR was less than 500 nM throughout.

Turning to `CC(C)(c1ccc2c(c1)CCO2)c1c[nH]c2c(NS(C)(=O)=O)cccc12` [Example 22, N-{3-[1-(2,3-Dihydro-benzofuran-5-yl)-1-methyl-ethyl]-1H-indol-7-yl}-methanesulfonamide], the Ki on glucocorticoid receptor and at human MR was less than 500 nM in each case.

In the case of `CC(C)(c1cccc(-c2ccc(F)cc2)c1)c1c[nH]c2c(NS(C)(=O)=O)cccc12` [Example 36, N-{3-[1-(4′-Fluoro-biphenyl-3-yl)-1-methyl-ethyl]-1H-indol-7-yl}-methanesulfonamide], the Ki at glucocorticoid receptor is less than 10000 nM; on human MR, less than 500 nM.

As to `CC(c1ccccc1)(c1ccccc1)c1cn(CC(=O)O)c2ccccc12` [Example 42, [3-(1,1-Diphenyl-ethyl)-indol-1-yl]-acetic acid], the Ki on glucocorticoid receptor and on human MR was less than 10000 nM each time.

As for `COc1ccc(C(C)(c2c[nH]c3c(C)cccc23)C2CC2)cc1` (stereo not drawn) [Example 24, 3-[1-Cyclopropyl-1-(4-methoxy-phenyl)-ethyl]-7-methyl-1H-indole], the Ki on glucocorticoid receptor and at human MR was less than 500 nM in each case.

As for `CCC(CC)(c1ccco1)c1c[nH]c2c(NS(C)(=O)=O)cccc12` [Example 30, N-[3-(1-Ethyl-1-furan-2-yl-propyl)-1H-indol-7-yl]-methanesulfonamide], the Ki on glucocorticoid receptor and at human MR was less than 500 nM each time.

Consider `CS(=O)(=O)Nc1cccc2c(C3(c4ccccc4)CCCCC3)c[nH]c12` [Example 16, N-[3-(1-Phenylcyclohexyl)-1H-indol-7-yl]-methanesulfonamide], for which the Ki was less than 1000 nM on glucocorticoid receptor and less than 500 nM on human MR.

As for `COc1ccc(C(C)(C)c2c[nH]c3c(NS(C)(=O)=O)cccc23)cc1` [Example 55, N-{3-[1-(4-Methoxy-phenyl)-1-methyl-ethyl]-1H-indol-7-yl}-methanesulfonamide], the Ki at glucocorticoid receptor and at human MR was less than 500 nM throughout.

For the compound `CCC(CC)(c1ccc(Cl)cc1)c1c[nH]c2c(NS(C)(=O)=O)cccc12` [Example 56, N-{3-[1-(4-Chloro-phenyl)-1-ethyl-propyl]-1H-indol-7-yl}-methanesulfonamide], the Ki at glucocorticoid receptor and on human MR was less than 500 nM throughout.

Regarding `CCCC(C)(c1ccc(OC(F)(F)F)cc1)c1c[nH]c2c(NS(C)(=O)=O)cccc12` (stereo not drawn) [Example 43], the Ki at glucocorticoid receptor is less than 1000 nM; at human MR, less than 500 nM.

Source of the values: US20060235222A1, “Indole-derivative modulators of steroid hormone nuclear receptors” (ELI LILLY AND COMPANY, priority 2003, published 2006).
